Reference: patent publication US5763470A, “Benzopyran compounds and methods for their use” (Sugen Inc., priority 1995, dated 1998)

Columns and labels:
Type in all cases: cell-based
[1] = test system: NIH3T3/IGF-1R cells; assay: IGF-I Receptor Growth Assay, 3T3 IGF-1R cells; conditions: Mus musculus, 0.5% FBS, 10 nM IGF-1, read-out: Cell Growth Assays, 3T3 IGF-1R 0.5% FBS
Procedure: Assay 2: IGF-I Receptor Growth Assay
Materials And Methods. The following materials were used to conduct the IGF-I receptor growth assay:
(§1) a. The NIH3T3/IGF-1R (10% FBS/2 mM glutamine/DMEM) and NIH3T3 c7 (10% calf serum/2 mM glutamine/DMEM) cell lines were used wherein the NIH3T3 cells (and cells derived from them) were handled such that they were not allowed to become confluent, thus decreasing the likelihood of spontaneous transformation.
Using the above described materials, the following steps were performed under aseptic conditions until fixing the cells for the SRB assay:
(§2) Day 0: Cell Plating--Trypsinize and count NIH3T3/IGF-1R and NIH3T3 c7 cells. Dilute in growth media to 2000 cells/200 μl and seed flat bottom 96-well plates with 200 μl/well, one plate for two compounds for each cell line.
Day 1: Compound Preparation--Add DMSO to each compound to make 100 mM stock solutions.
NIH3T31IGF-1R cells--For each 96-well plate, make 15 ml of 10 nM IGF-1/0.5% FBS/2 mM glutamine/DMEM (30 μl of 5 μM IGF-1/15 ml).
Add 3 μl of 100 mM stock of each compound to a tube so 200 μM final. Shake or vortex until it goes into solution. If it is necessary to add additional medium, note the final concentration.
Do 2-fold dilutions (130 μl) from columns 12 to 3 on each plate (column 2 will be for the untreated control), mixing thoroughly. […]

[2] = test system: MCF7 cells overexpressing HER2 kinase (MCF7-HER2); assay: MCF-7/HER-2 SRB Growth Assay; conditions: Homo sapiens, MCF7, 96 h; 0.5% FBS; 4 days; read-out: Cell Growth Assays, MCF7 Her-2 0.5% FBS
[3] = test system: MCF7 cells; assay: MCF-7 SRB Growth Assay; conditions: Homo sapiens, MCF7, 96 h; 10% FBS; 4 days; read-out: Cell Growth Assays, MCF7 10% FBS
Procedure: Assay 1: MCF-7 RB Growth Assay. MCF-7 cells are seeded at 2000 cells/well in a 96-well flat bottom plate in normal growth media, which was 10% FBS/RPMI supplemented with 2 mM Glutamine. The plate of cells is incubated for about 24 hours at 37° C. after which it receives an equal volume of compound dilution per well making the total volume per well 200 μl. The compound is prepared at 2 times the desired highest final concentration and serially diluted in the normal growth media in a 96-well round bottom plate and then transferred to plate of cells. DMSO serves as the vector control up to 0.2% as final concentration. The cells are then incubated at 37° C. in a humidified 5% CO2 incubator. Four days following dosing of compound, the media is 15 discarded and 200 μl/well of ice-cold 10% TCA (Trichloroacetic Acid) is added to fix cells. After 60 minutes at 4° C., the TCA is discarded and the plate is rinsed 5 times with water. The plate is then air-dried and 100 μl/well of 0.4% SRB (Sulforhodamine B from Sigma) 20 in 1% Acetic Acid is added to stain cells for 10 minutes at room temperature. The SRB is discarded and the plate is rinsed 5 times with 1% Acetic Acid. After the plate is completely dried, 100 μl/well of 10 mM Tris-base is added to solubilize the dye. After 5 to 10 minutes, the plate is read on a Dynatech ELISA Plate Reader at dual wavelengths at 570 nm and 630 nm. […]

[4] = test system: NIH3T3 c7 cells; assay: Cell growth assay, 3T3 control cells (beside 3T3 IGF-1R); conditions: Mus musculus, 10% FBS, column beside 3T3 IGF-1R, read-out: Cell Growth Assays, 3T3 10% FBS
Procedure: as §1, §2
Day 4: Refeed--Repeat steps above, adding exactly the same IGF-1 and compound concentration to each well as before.
Using wells in column 2 (treated with IGF-1 but not compound) as 100%, calculate percent of control for each concentration of compound.
Use a curve fit method to graph percent of control vs. log(molar concentration) and determine the IC50.

[5] = test system: HER2C7 cells (NIH3T3 engineered to express HER2); assay: 3T3/HER2 Cell Growth Assay, 3T3 HER-2 cells; conditions: Mus musculus, NIH3T3, 96 h; 2% FBS; 4 days; read-out: Cell Growth Assays, 3T3 HER-2 2% FBS
Procedure: (§3) The NIH3T3 growth assay, using cell lines capable of expressing HER2, was carried out as follows:
(§4) m. NIH3T3C7 cells in 10% CS+2 mM glutamine DMEM HER2C7 cells in 2% FBS+2 mM glutamine DMEM
(§5) 1. HER2C7 (engineered to express HER2) and NIH3T3C7 (as the control) cells are used for this assay. NIH3T3C7 cells are seeded at 2500 cells/well, […] in 10% CS+2 mM glutamine DMEM, in a 96 well plate; HER2C7 cells are seeded at 6000 cells/well, 100 μl/well in 2% FBS+2 mM glutamine DMEM, in a 96 well plate. Cells are incubated at 37° C., 5% CO2 overnight to allow for cell attachment to the plate;
(§6) 2. The TBST compound is added to the cells at day 2. The compounds are prepared in the appropriate growth medium (10% CS+2 mM) glutamine DMEM for NIH3T3C7 cells; 2% FBS+2 mM glutamine DMEM for HER2C7 cells) in a 96 well plate, and serially diluted. A total of 100 μl/well medium of the diluted compounds is added into the cells. The total volume of each well is 200 μl. Quadruplicates (wells) and 11 concentration points are applied to each compound tested.
(§7) 3. After the cells are treated with the compound for 4 days, the cells are washed with PBS and fixed with 200 μl/well ice-cold 10% TCA for one hour at 0-5° C. condition.
(§8) 4. Remove TCA and rinse wells […] with deionized water. Dry plates upside down with paper towels. […]
7. Read the plate at dual wavelengths at 570 nm and 630 nm on Dynatech Elisa plate reader. […]

[6] = test system: NIH3T3C7 cells; assay: 3T3/HER2 Cell Growth Assay, 3T3 control cells (beside 3T3 HER-2); conditions: 96 h; 10% FBS; column beside 3T3 HER-2; 4 days; read-out: Cell Growth Assays, 3T3 10% FBS
Procedure: as §3, §4, §5, §6, §7, §8
7. Read the plate at dual wavelengths at 570 nm and 630 nm on Dynatech Elisa plate reader.

With `COc1cccc2c1OC(c1ccc(F)cc1)C([N+](=O)[O-])=C2` (stereo not drawn) [Compound A, 2-(4-Fluorophenyl)-8-methoxy-3-nitro-1,2-benzopyran] the IC50 [1] was 2500 nM, the IC50 [2] was 800 nM and the IC50 [3] was 2000 nM. For the same compound, the IC50 [4] was 5600 nM, the IC50 [5] was 1800 nM and the IC50 [6] was 70000 nM.
